Laboratory results reported in publication PMC8243516, “Inhibition of lysosomal phospholipase A2 predicts drug-induced phospholipidosis” (Journal of Lipid Research, 2021).
Structures can show the parent of a compound that is named as a salt. Where two headings read alike, the source gives them in different places.

Tests used:
phospholipidosis = details: cited from earlier work
[1] = ref Pubchem and chEMBL databases; cited from earlier work
[2] = biological target: T1, recombinant mouse LPLA2 (PLA2G15) (Mus musculus, UniProt Q8VEB4); experiment: Transacylase activity of LPLA2 (1-O-acyl-N-acetylsphingosine synthase, cell-free liposome assay); assay type: biochemical; details: pH 4.5, DOPC/sulfatide liposomes
T1 construct: purchased Proteos Inc. (Kalamazoo, MI)
T1 sequence (Q8VEB4 34-412): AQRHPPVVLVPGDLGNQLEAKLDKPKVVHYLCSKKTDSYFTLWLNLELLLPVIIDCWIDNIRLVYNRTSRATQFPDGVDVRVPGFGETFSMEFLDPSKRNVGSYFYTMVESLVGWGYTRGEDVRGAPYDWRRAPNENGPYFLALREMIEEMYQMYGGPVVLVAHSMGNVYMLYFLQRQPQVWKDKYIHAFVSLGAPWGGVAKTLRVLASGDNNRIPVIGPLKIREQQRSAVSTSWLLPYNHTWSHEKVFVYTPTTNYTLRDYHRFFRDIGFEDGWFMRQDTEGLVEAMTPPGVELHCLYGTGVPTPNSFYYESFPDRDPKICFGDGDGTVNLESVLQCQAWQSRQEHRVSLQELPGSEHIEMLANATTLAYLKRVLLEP

LPLA2 = biological target: T2, LPLA2 (Mus musculus, UniProt Q8VEB4); experiment: LPLA2 thermal stability measurement (SYPRO Orange Tm); assay type: binding
T2 construct: purchased Proteos Inc. (Kalamazoo, MI)
T2 sequence (Q8VEB4 34-412): T1 sequence (Q8VEB4 34-412)

[3] = phospholipidosis reported in vitro, Refs of Table 1
[4] = 1-O-acyl N-acetylsphingosine synthase activity, read-out: LPLA2 IC50

Structure (SMILES) | In Vitro PLD (phospholipidosis; [3]) | pKa (basic) [1] | IC50 [2, 4] | (ΔTm)c-(ΔTm)d, difference in melting temperature of LPLA2 alone or in the presence of drug (LPLA2; N=3 ± SD) | IC50 ([2]; LPLA2 IC50, 1-O-acyl N-acetylsphingosine synthase activity) | (ΔTm)c-(ΔTm)d, difference in melting temperature of LPLA2 alone or in the presence of drug (LPLA2) | In Vitro PLD (phospholipidosis)
CCN(CCCc1ccccc1)CCCc1ccccc1 [Alverine, ethyl bis (3-phenylpropyl)amine] | Yes | 10.44 | 40 µM | 0.14 ± 0.1 °C |  |  | 
C[C@]12C=CC(=O)N[C@@H]1CC[C@@H]1[C@@H]2CC[C@]2(C)[C@@H](C(=O)Nc3cc(C(F)(F)F)ccc3C(F)(F)F)CC[C@@H]12 [Dutasteride, (1S,2R,7R,10S,11S,14S,15S)-N-[2,5-bis (trifluoromethyl)phenyl]-2,15-dimethyl-5-oxo-6-azatetracyclo[8.7.0.0^2,^7.0^11,^15]heptadec-3-ene-14-carboxamide] | Yes | 2.17 | 1050 µM |  |  |  | 
CN(CCCN1c2ccccc2CCc2ccccc21)CC(=O)c1ccc(Cl)cc1 [Lofepramine, 2-[(3-{2-azatricyclo[9.4.0.0ˆ{3,8}]pentadeca-1(15),3,5,7,11,13-hexaen-2-yl}propyl) (methyl)amino]-1-(4-chlorophenyl) ethan-1-one] | Yes | 6.53 | 13.2 µM | 0 °C |  |  | 
COc1cc(C(=O)NS(=O)(=O)c2ccccc2C)ccc1Cc1cn(C)c2ccc(NC(=O)OC3CCCC3)cc12 [Zafirlukast, cyclopentyl N-[3-({2-methoxy-4-[(2-methylbenzenesulfonyl)carbamoyl]phenyl}methyl)-1-methyl-1H-indol-5-yl]carbamate] | Yes | -1.1 | 3.1 µM | 1.80 ± 0.4 °C |  |  | 
O=C(O)c1ccccc1Nc1cccc(C(F)(F)F)c1 [Flufenamic acid, 2-{[3-(trifluoromethyl)phenyl]amino}benzoic acid] | Yes | -2.1 | 178 µM | -0.62 ± 0.3 °C |  |  | 
COc1cc2nc(N3CCN(C(=O)c4ccco4)C4CCCCC43)nc(N)c2cc1OC (stereo not shown) [Cyclazosin, 1-(4-amino-6,7-dimethoxy-2-quinazolinyl)-4-(2-furanylcarbonyl) decahydroquinoxaline] | Yes | 9.89 | 30.8 µM | 0.18 ± 0.1 °C |  |  | 
COc1ccnc(C[S+]([O-])c2nc3ccc(OC(F)F)cc3[nH]2)c1OC (stereo not shown) [Pantoprazole, 6-(difluoromethoxy)-2-[(3,4-dimethoxypyridin-2-yl)methanesulfinyl] -1H-1,3-benzodiazole] | Yes | 3.55 | 6.23 µM | 0.25 ± 0.1 °C |  |  | 
Clc1ccc(C(OCCN2CCCCC2)c2ccccc2)cc1 (stereo not shown) [Cloperastin, 1-{2-[(4-chlorophenyl) (phenyl)methoxy]ethyl} piperidine] | Yes | 8.82 | 40.9 µM | 0 °C |  |  | 
COC(=O)[C@@H]1[C@H]2C[C@H]3c4[nH]c5ccccc5c4CCN3C[C@@H]2CC[C@@H]1O [Yohimbine, methyl (1S,15R,18S,19R,20S)-18-hydroxy-3,13-diazapentacyclo [11.8.0.0^2,^10.0^4,^9.0^15,^20]henicosa-2(10),4,6,8-tetraene-19-carboxylate] | Yes | 7.65 |  |  | 200 µM | 1.52 ± 0.6 °C | 
CC(=O)N1CCN(c2ccc(OCC3COC(Cn4ccnc4)(c4ccc(Cl)cc4Cl)O3)cc2)CC1 (stereo not shown) [Ketoconazole, 1-[4-(4-{[2-(2,4-dichlorophenyl)-2-(1H-imidazole-1-ylmethyl)-1,3-dioxolan-4-yl]methoxy}phenyl)piperazin-1-yl]ethan-1-one] | Yes | 6.75 | 39 µM | 0.42 ± 0.8 °C |  |  | 
CN(C)CCOC(=O)C(c1ccccc1)C1(O)CCCC1 (stereo not shown) [Cyclopentolate, 2-(dimethylamino)ethyl 2-(1-hydroxycyclopentyl)-2-phenylacetate] | Yes | 8.42 | 32.2 µM | 0.87 ± 0.6 °C |  |  | 
COc1ccc(CCN2CCC(Nc3nc4ccccc4n3Cc3ccc(F)cc3)CC2)cc1 [Astemizole, 1-(4-fluorobenzyl)-2-(1-[4-methoxyphenethyl]piperidin-4-yl)aminobenzimidazole] | Yes | 8.75 |  |  |  |  | 
CC(C)COCC(CN(Cc1ccccc1)c1ccccc1)N1CCCC1.Cl (stereo not shown) [Bepridil hydrochloride, 1-isobutoxy-2-pyrrolidino-3-(N-benzylanilino) propane hydrochloride] |  | 9.16 | 7.17 µM |  |  |  | Yes
CN1CCN2c3ccccc3Cc3ccccc3C2C1 (stereo not shown) [Mianserin, 5-methyl-2,5 diazatetracyclo [13.4.0.0^2,^7.0^8,^1³] nonadeca-1(19),8,10,12,15,17-hexaene] | Yes | 6.9 |  |  |  |  | 
CC(C)C[C@H]1C(=O)N2CCC[C@H]2[C@]2(O)O[C@](NC(=O)[C@@H]3C=C4c5cccc6[nH]c(Br)c(c56)C[C@H]4N(C)C3)(C(C)C)C(=O)N12 [Bromocriptine, (4R,7R)-10-bromo-N-[(1S,2S,4R,7S)-2-hydroxy-7-(2-methylpropyl)-5,8-dioxo-4-(propan-2-yl)-3-oxa-6,9-diazatricyclo[7.3.0.0ˆ{2,6}]dodecan-4-yl]-6-methyl-6,11diazatetracyclo[7.6.1.0ˆ{2,7}.0ˆ{12,16}]hexadeca-1(16),2,9,12,14-pentaene-4-carboxamide] | Yes | 6.71 | 125 µM |  |  |  | 
CCN(CC)CCc1nc(-c2ccccc2)no1 [Oxolamine citrate, diethyl[2-(3-phenyl-1,2,4-oxadiazol-5-yl)ethyl]amine] | Yes | 8.96 | 369 µM |  |  |  | 
CN1CCC[C@@H]1CCO[C@](C)(c1ccccc1)c1ccc(Cl)cc1 [Clemastine] | Yes | 9.55 |  |  |  |  | 
O=C(Nc1cccc2c(=O)cc(-c3nnn[nH]3)oc12)c1ccc(OCCCCc2ccccc2)cc1 [Pranlukast, N-[4-oxo-2-(2H-1,2,3,4-tetrazol-5-yl)-4H-chromen-8-yl]-4-(4-phenylbutoxy)benzamide] | Yes | -1.7 |  | 0 °C |  |  | 
CCCN(CCC)CCc1cccc2c1CC(=O)N2 [Ropinirole, 4-[2-(dipropylamino)ethyl]-2,3-dihydro-1H-indol-2-one] | Yes | 10.17 |  |  |  |  | 
CCN(CC)CC#CCOC(=O)C(O)(c1ccccc1)C1CCCCC1 (stereo not drawn) [Oxybutynin, α-phenylcyclohexaneglycolic acid 4-(diethylamino)-2-butynyl ster hydrochloride] | Yes | 8.77 |  |  |  |  | 
c1ccc2c(CC3=NCCN3)cccc2c1 [Naphazoline, 2-(naphthalen-1-ylmethyl)-4,5-dihydro-1H-imidazole] | Yes | 10.19 |  |  |  |  | 
